Counter-ions that a name gives are not always drawn.
Target: T1, histamine H2 -receptors (Rattus norvegicus, UniProt P25102)
T1 construct: from tissue; host or cells: stomach of living anaesthetized Sprague-Dawley rats (in vivo perfusion)
Assay: Blocking activity of histamine H2-receptors: inhibition of histamine-induced perfusate pH decrease (gastric acid secretion) in perfused stomach of anaesthetized rats
Format: in vivo, Sprague-Dawley albino male rats
Settings: for ED50: rat, iv, anaesthetized rats, perfused stomach, histamine 0.325 μmols/kg/min, test drugs via femoral veins, read-out: ED50 (inhibition rate of maximal pH decrease in relation to initial pH); for times more active than Cimetidine, according to ED50 values: ratio of ED50 values to Cimetidine (Table 1)
Experimental: The blocking activity of histamine H2 -receptors was tested in Sprague-Dawley albino male rats weighing 350-450 g. Animals subject to 18-hour fasting were anaesthetized with urethane (1.5 g/kg i.p.), after which a longitudinal incision was performed on the abdominal wall, and pylorus and esophagus were cannulated for subject perfusion. In addition, femoral veins were cannulated for administration of test drugs and histamine solution.
The animals' stomachs were perfused with 1/8000N NaOH diluted solution at a rate of 2 ml/min. The perfusion liquid was then circulated through a 3 ml-volume chamber provided with a pH meter electrode. After calibrating the pH, histamine was perfused at 0.325 μmols/kg/min. The histamine perfusion caused a decrease of the perfusion liquid pH, which was inhibited by the compounds of the present invention.

T1 sequence (P25102 whole entry, the tested form may be a part): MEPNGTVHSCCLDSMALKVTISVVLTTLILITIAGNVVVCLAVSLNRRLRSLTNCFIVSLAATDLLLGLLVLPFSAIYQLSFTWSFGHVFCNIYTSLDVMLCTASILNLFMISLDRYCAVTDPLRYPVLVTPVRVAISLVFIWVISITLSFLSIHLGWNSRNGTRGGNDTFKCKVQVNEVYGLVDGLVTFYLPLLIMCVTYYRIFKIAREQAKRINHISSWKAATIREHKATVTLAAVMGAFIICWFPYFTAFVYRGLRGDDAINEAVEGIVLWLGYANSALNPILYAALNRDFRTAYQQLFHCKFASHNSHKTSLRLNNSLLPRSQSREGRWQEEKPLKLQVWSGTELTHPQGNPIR

SMILES | ED50 [µmol/kg] | times more active than Cimetidine, according to ED50 values [times]
N#CN=CNCCSCc1csc(NC(=N)N)n1 [Example 3, N-cyano-N'-[2-[[[2-[(aminoiminomethyl)amino]-4-thiazolyl]methyl]thio]ethyl]formamidine maleate acid] | 2.17 | 2.6
N#CN=CNCCCOc1cccc(CN2CCCCC2)c1 [Example 4, N-cyano-N'-[3-[3-(1-piperidinylmethyl)phenoxy]propyl]formamidine hydrochloride] | 3.2 | 1.8
CN/C(=N/CCSCc1nc[nH]c1C)NC#N [Cimetidine, reference compound] | 5.6 | –

— patent publication US4600780A, “N-cyano-formamidines” (Ferrer International, S.A., priority 1983, dated 1986)
